# Assay results taken from patent publication US10077446B2, “Glucan-encapsulated siRNA for treating type 2 diabetes mellitus” (The United States of America, as represented by THE …, priority 2013, dated 2018).
# How the values were obtained:
# [1] = system: Zucker diabetic fatty (ZDF) rats; assay: 10-day i.p. treatment of ZDF rats with glucan-encapsulated CB1R siRNA (GeRPs); type: in vivo, rat; settings: daily i.p. GeRPs for 10 days
# Experimental: Blood glucose levels were determined using the Elite glucometer (Bayer, Pittsburgh, Pa.). […] Plasma insulin was measured using the Ultra Sensitive rat Insulin ELISA kit (Crystal Chem Inc). Hemoglobin A1c was determined using the Rat Hemoglobin A1c (HbA1c) assay kit (Crystal Chem) and c-peptide was quantified by ELISA (C-peptide (rat) ELISA, ALPCO). Serum leptin and adiponectin were determined by ELISA (B-Bridge International). α-amylase, lipase, and uric acid concentrations were determined using commercially available colorimetric kits (BioAssay Systems). TNF-α and IL-1β were determined using TNF-α ELISA Kit (for Lysates) (RayBiotech, Inc.) and IL1β Rat ELISA Kit (Abeam), respectively.
# Pancreas was fixed in 10% neutral buffered formalin (NBF), embedded in paraffin and sectioned ([…]) onto glass slides. […] For detection, secondary Ab coupled to FITC or PE were used (Table 2). Images were viewed with a Fluoview FV10i confocal microscope system (Olympus). Images were then analyzed using image J software and the presence or absence of co-localization was assessed by calculating the Pearson's coefficient.
# Fluorescein (FITC)-labeled glucan shells were prepared as previously described (Tesz, et al. 2011 Biochemical Journal 436:351-362). To prepare a GeRP dose for one rat, 50 nmoles siRNA (Dharmacon) were incubated with 500 nmoles Endo-Porter (Gene Tools) in 30 mM sodium acetate pH 4.8 for 15 min at RT in a final volume of 200 μl. The siRNA/Endo-Porter solution was added to 10 mg ([…]) of FITC-glucan shells and then vortexed and incubated for 1 hour. The siRNA loaded GeRPs were then resuspended in 5 ml PBS and sonicated to ensure homogeneity of the GeRP preparation. […]
# Total mRNA from the liver, pancreas and kidney were extracted with Trizol (Invitrogen), while total mRNA from cells was extracted using RNEASY™ Mini Kit (Qiagen). […] QUANTITECT™ Primer Assays were used to detect gene expression (Table 3, which lists the primers used for rat and mice (tissue)). […]
# CB1R mRNA = assay: CB1R gene silencing by siRNA/EP in peritoneal elicited macrophages (PEC), qPCR; type: cell-based, rat
# Experimental: (§1) Eight-week old ZDF rats were injected i.p. with 4% thioglycollate broth (Sigma-Aldrich). Five days following injection, the peritoneal cavity was washed with PBS and peritoneal fluid was filtered through a 70 μm diameter pore nylon mesh and centrifuged. The pellet was first treated with red blood cell lysis buffer and plated in DMEM supplemented with 10% fetal bovine serum (FBS), 50 μg/ml streptomycin and 50 units/ml penicillin. 24 hours after isolation peritoneal elicited cells (PEC) were treated with siRNA. Eighty, 160 or 240 pmoles of scrambled or CB1R siRNA (Dharmacon) was incubated with 3 nmoles EP in PBS for 15 min and added to 1×10^6 cells. 48 hours after treatment, mRNA were extracted, reversed transcribed and the degree of CB1R knock-down was analyzed by qPCR.
# Total mRNA from the liver, pancreas and kidney were extracted with Trizol (Invitrogen), while total mRNA from cells was extracted using RNEASY™ Mini Kit (Qiagen). All extractions were followed by DNase I treatment (Invitrogen). Total mRNA was reverse-transcribed using the ISCRIPT™ cDNA kit (Bio-Rad). Real-time PCR was performed as described previously (Jourdan, et al. 2010 Diabetes 59:926-934) in a 96-well plate using a STEPONEPLUS™ real time PCR system (Applied Biosystems). QUANTITECT™ Primer Assays were used to detect gene expression (Table 3, which lists the primers used for rat and mice (tissue)). […]
# CB2R mRNA = assay: siRNA specificity: CB2 receptor expression in peritoneal elicited macrophages (PEC); type: cell-based, rat; settings: thioglycollate-induced PEC
# Experimental: The specificity of each siRNA was measured in terms of knockdown of CB2 receptor expression, and a dose-response analysis of siRNA C was carried out.
# as §1
# Total mRNA from the liver, pancreas and kidney were extracted with Trizol (Invitrogen), while total mRNA from cells was extracted using RNEASY™ Mini Kit (Qiagen). All extractions were followed by DNase I treatment (Invitrogen). Total mRNA was reverse-transcribed using the ISCRIPT™ cDNA kit (Bio-Rad). […] QUANTITECT™ Primer Assays were used to detect gene expression (Table 3, which lists the primers used for rat and mice (tissue)). […]
substance,measurement,setting,value
"sense GCAUCAAGAGCACCGUUAAUU (SEQ ID NO: 9), antisense UUAACGGUGCUCUUGAUGCUU (SEQ ID NO: 10) (listed as RNA, chemistry not given here) [siRNA C, siRNA directed against rat CB1R, selected for in vivo use]",glycemia and insulinemia,[1],remained normoglycemic and hyperinsulinemic
same,insulin expression and content in islets,[1],increased
same,"macrophage infiltration and expression of Nlrp3-ASC, IL-1β, IL-18, MCP-1 and CB1R",[1],decreased
same,degree of knockdown among the four siRNA sequences,CB1R mRNA; rat CB1R siRNAs A-D,greatest degree of knockdown
same,suppression of CB1R mRNA,"CB1R mRNA; thioglycollate-induced PEC, 48 h, dose-dependent, preliminary experiments",> 95%
same,CB2R mRNA,CB2R mRNA,no change
